Measurements taken from BindingDB's records for doi:10.7270/Q2D798VP (Broad Institute, 2009).

Target: T1, Zinc finger protein mex-5 (Caenorhabditis elegans, UniProt Q9XUB2)
T1 sequence (Q9XUB2 whole entry): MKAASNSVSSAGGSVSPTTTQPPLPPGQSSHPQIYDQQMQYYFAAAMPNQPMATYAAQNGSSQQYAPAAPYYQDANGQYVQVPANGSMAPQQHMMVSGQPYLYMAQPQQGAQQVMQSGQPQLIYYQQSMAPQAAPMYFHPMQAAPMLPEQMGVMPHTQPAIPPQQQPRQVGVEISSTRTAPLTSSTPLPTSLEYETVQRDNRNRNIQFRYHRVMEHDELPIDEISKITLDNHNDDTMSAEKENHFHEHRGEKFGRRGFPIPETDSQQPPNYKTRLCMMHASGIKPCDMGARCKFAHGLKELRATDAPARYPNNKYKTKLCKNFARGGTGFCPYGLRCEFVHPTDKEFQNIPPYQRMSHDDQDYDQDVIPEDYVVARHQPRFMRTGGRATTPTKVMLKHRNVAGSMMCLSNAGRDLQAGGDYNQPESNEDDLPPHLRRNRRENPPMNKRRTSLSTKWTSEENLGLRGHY
Experiment: potency of MEX-5 RNA-binding blockers – biochemical, C. elegans, fluorescence polarization, dose response (AID 1960)

`Cc1c(NC=C2C(=O)NC(=O)N(Cc3ccccc3)C2=O)c(=O)n(-c2ccccc2)n1C` [(5E)-1-benzyl-5-[[(1,5-dimethyl-3-oxo-2-phenylpyrazol-4-yl)amino]methylidene]-1,3-diazinane-2,4,6-trione] gave an EC50 greater than 300 µM.

`CCCCCCN1C(=O)NC(=O)C(=CNCCCn2ccnc2)C1=O` [(5E)-1-hexyl-5-[[3-(1-imidazolyl)propylamino]methylidene]-1,3-diazinane-2,4,6-trione] showed an EC50 greater than 300 µM.

`O=C1NC(=S)N(c2ccccc2)C(=O)C1=Cc1ccco1` [(5E)-5-(2-furanylmethylidene)-1-phenyl-2-sulfanylidene-1,3-diazinane-4,6-dione] gave an EC50 of 254 µM.

Work on `O=C1NC(=O)N(CCc2ccccc2)C(=O)C1=CNCCCn1ccnc1` [(5E)-5-[(3-imidazol-1-ylpropylamino)methylene]-1-phenethyl-barbituric acid] yielded an EC50 greater than 300 µM.

`COc1ccc(N2C(=O)NC(=O)C(=Cc3c[nH]c4ccc(Br)cc34)C2=O)c(OC)c1` [(5E)-5-[(5-bromo-1H-indol-3-yl)methylene]-1-(2,4-dimethoxyphenyl)pyrimidine-2,4,6(1H,3H,5H)-trione] showed an EC50 greater than 300 µM.

`CCN(CC)CCNC=C1C(=O)NC(=O)N(CCc2ccccc2)C1=O` [(5E)-5-[[2-(diethylamino)ethylamino]methylene]-1-phenethyl-barbituric acid] gave an EC50 greater than 300 µM.

`CN(C)CCCNC=C1C(=O)NC(=O)N(CCc2ccc(F)cc2)C1=O` [(5E)-5-[[3-(dimethylamino)propylamino]methylene]-1-[2-(4-fluorophenyl)ethyl]barbituric acid] showed an EC50 greater than 300 µM.

Compound `CN(C)c1ccc(NC=C2C(=O)NC(=O)N(CCC3=CCCCC3)C2=O)cc1` [(5Z)-1-[2-(cyclohexen-1-yl)ethyl]-5-[[[4-(dimethylamino)phenyl]amino]methylidene]-1,3-diazinane-2,4,6-trione] has an EC50 greater than 300 µM.

Compound `CCN(CC)CCNC=C1C(=O)NC(=O)N(Cc2ccccc2)C1=O` [(5Z)-1-benzyl-5-[[2-(diethylamino)ethylamino]methylene]barbituric acid] has an EC50 greater than 300 µM.

For `CCOC(=O)C1C(=O)C(=Cc2cn(CC(=O)N3CCCC3)c3ccccc23)S/C1=N\c1ccccc1` (stereo not given) [(5Z)-2-anilino-4-keto-5-[[1-(2-keto-2-pyrrolidino-ethyl)indol-3-yl]methylene]thiophene-3-carboxylic acid ethyl ester], the EC50 was 26.2 µM.

Work on `C/N=C1/S/C(=C\c2ccc(N3CCCC3)c(F)c2)C(=O)N1C` [(5Z)-5-(3-fluoro-4-pyrrolidino-benzylidene)-3-methyl-2-methylimino-thiazolidin-4-one] yielded an EC50 of 8.89 µM.

`CC1=C(C#N)C(=O)N(C)C(=O)C1=CN` [(5Z)-5-(aminomethylidene)-1,4-dimethyl-2,6-dioxopyridine-3-carbonitrile] showed an EC50 greater than 300 µM.

With `C=CCN1C(=O)NC(=O)C(=CCC=Nc2ccccc2)C1=O` [(5Z)-5-[(E)-3-phenylazanylprop-2-enylidene]-1-prop-2-enyl-1,3-diazinane-2,4,6-trione] the EC50 was greater than 300 µM.

`COc1cccc(CN=Nc2ncnc(N)c2[N+](=O)[O-])c1OC` [(6-amino-5-nitro-pyrimidin-4-yl)-[(2,3-dimethoxybenzylidene)amino]amine] gave an EC50 greater than 300 µM.

`C=CCc1cccc(C=Nn2cnnc2)c1O` [(6E)-2-allyl-6-[(1,2,4-triazol-4-ylamino)methylene]cyclohexa-2,4-dien-1-one] was tested, and the EC50 was 238 µM.

With `COc1ccc(N=Cc2cc3c(cc2O)OC(=N)C(C#N)C3c2ccccc2)cc1` (stereo not given) [(6E)-2-amino-6-[(4-methoxyanilino)methylidene]-7-oxo-4-phenyl-4H-1-benzopyran-3-carbonitrile] the EC50 was greater than 300 µM.

Compound `Cc1n[nH]c(C)c1Sc1ccccc1/N=C/C1C=C(Cl)C=C([N+](=O)[O-])C1=O` (stereo not given) [(6E)-4-chloranyl-6-[[[2-[(3,5-dimethyl-1H-pyrazol-4-yl)sulfanyl]phenyl]amino]methylidene]-2-nitro-cyclohexa-2,4-dien-1-one] has an EC50 of 7.57 µM.

`CCOc1cc(C=C2C(=N)N3N=C(S(C)(=O)=O)SC3=NC2=O)ccc1OCCOc1cccc(OC)c1` [(6E)-6-[[3-ethoxy-4-[2-(3-methoxyphenoxy)ethoxy]phenyl]methylidene]-5-imino-2-methylsulfonyl-[1,3,4]thiadiazolo[3,2-a]pyrimidin-7-one] showed an EC50 of 221 µM.

`C=CC1=C(C(=O)O)N2C(=O)[C@@H](NC(=O)C(N=O)c3csc(N)n3)[C@H]2SC1` (stereo partly drawn) [(6R,7R)-7-[[2-(2-azanyl-1,3-thiazol-4-yl)-2-hydroxyimino-ethanoyl]amino]-3-ethenyl-8-oxidanylidene-5-thia-1-azabicyclo[4.2.0]oct-2-ene-2-carboxylic acid] was tested, and the EC50 was 33.3 µM.

`CCn1nc(C)c(C=C2CCCC3=C2OC(=N)C(C#N)C3c2c(C)nn(CC)c2C)c1C` (stereo not given) [(8E)-2-amino-4-(1-ethyl-3,5-dimethyl-1H-pyrazol-4-yl)-8-[(1-ethyl-3,5-dimethyl-1H-pyrazol-4-yl)methylene]-5,6,7,8-tetrahydro-4H-chromene-3-carbonitrile] was tested, and the EC50 was 51.8 µM.

For `CCOC(=O)N1CCC2=C(C#N)C(=N)C(C#N)(C#N)[C@H](c3ccsc3)[C@H]2C1` [(8R,8aR)-6-amino-5,7,7-tricyano-8-(3-thienyl)-1,3,8,8a-tetrahydroisoquinoline-2-carboxylic acid ethyl ester], the EC50 was 58.7 µM.

`N#CC1=C2CCOC[C@@H]2[C@@H](c2ccsc2)C(C#N)(C#N)C1=N` [(8R,8aR)-6-amino-8-(3-thienyl)-1,3,8,8a-tetrahydroisochromene-5,7,7-tricarbonitrile] was tested, and the EC50 was greater than 300 µM.

Work on `CN1CCC2=C(C#N)C(=N)C(C#N)(C#N)[C@H](c3cccc(Cl)c3)C2C1` (stereo partly drawn) [(8S)-6-amino-8-(3-chlorophenyl)-2-methyl-1,3,8,8a-tetrahydroisoquinoline-5,7,7-tricarbonitrile] yielded an EC50 of 11.6 µM.

With `CC(C)(C)OC(=O)N1CCC2=C(C#N)C(=N)C(C#N)(C#N)[C@H](c3cccnc3)[C@H]2C1` [(8S,8aR)-6-amino-5,7,7-tricyano-8-(3-pyridinyl)-1,3,8,8a-tetrahydroisoquinoline-2-carboxylic acid tert-butyl ester] the EC50 was 54 µM.

Work on `C[C@@H]1O[C@@H](O[C@@H]2[C@@H](O)[C@H](OCCc3ccc(O)c(O)c3)O[C@H](CO)[C@H]2OC(=O)/C=C/c2ccc(O)c(O)c2)[C@H](O)[C@H](O)[C@H]1O` [((2R,3R,4R,5R,6R)-6-(3,4-dihydroxyphenethoxy)-5-hydroxy-2-(hydroxymethyl)-4-((2S,3R,4R,5R,6S)-3,4,5-trihydroxy-6-methyltetrahydro-2H-pyran-2-yloxy)tetrahydro-2H-pyran-3-yl) 3-(3,4-dihydroxyphenyl)acrylate] yielded an EC50 of 9.83 µM.

With `COc1ccc(C(=O)CC=Nc2ccc([N+](=O)[O-])cc2C)c(OC)c1` [(E)-1-(2,4-dimethoxyphenyl)-3-(2-methyl-4-nitro-anilino)prop-2-en-1-one] the EC50 was greater than 300 µM.

`COc1ccc(C(=O)CC=Nc2ccc([N+](=O)[O-])cc2C)cc1OC` [(E)-1-(3,4-dimethoxyphenyl)-3-(2-methyl-4-nitro-anilino)prop-2-en-1-one] was tested, and the EC50 was 150 µM.

Compound `O=C(CC=Nc1ccc([N+](=O)[O-])cc1)c1ccc(Br)cc1` [(E)-1-(4-bromophenyl)-3-(4-nitroanilino)-2-propen-1-one] has an EC50 greater than 300 µM.

`Cc1ccc(N=CCC(=O)c2sc(-c3ccccc3)nc2C)cc1` [(E)-1-(4-methyl-2-phenyl-1,3-thiazol-5-yl)-3-(4-toluidino)-2-propen-1-one] gave an EC50 greater than 300 µM.

`Cc1nnc(SC(=Cc2ccc(-c3ccc(Cl)cc3)o2)C(=O)O)[nH]1` [(E)-3-[5-(4-chlorophenyl)furan-2-yl]-2-[(5-methyl-1H-1,2,4-triazol-3-yl)sulfanyl]prop-2-enoic acid] showed an EC50 of 29.6 µM.

With `CC(=N)C(C#N)C(=O)CSc1ncnc2ccccc12` (stereo not given) [(E)-3-amino-2-(2-quinazolin-4-ylsulfanylacetyl)but-2-enenitrile] the EC50 was 8.02 µM.

For `O=CC(C=Nc1ccccn1)c1nc2cc(Cl)ccc2o1` (stereo not given) [(Z)-2-(5-chloranyl-1,3-benzoxazol-2-yl)-3-(pyridin-2-ylamino)prop-2-enal], the EC50 was 36.4 µM.

`CCCCN1C(=O)NC(=O)C(=CNNC(=O)c2ccncc2)C1=O` [Isonicotinic acid N'-[1-butyl-2,4,6-trioxo-tetrahydro-pyrimidin-(5E)-ylidenemethyl]-hydrazide] showed an EC50 greater than 300 µM.

In the case of `COc1cc(C2C3CN(C)CCC3=C(C#N)C(=N)C2(C#N)C#N)ccc1OC(C)C` (stereo not given) [MLS000034945], the EC50 is reported as 31.3 µM.

`CC(=O)Nc1ccc(N=CCC(=O)c2ccc(C)o2)cc1` [MLS000089004] was tested, and the EC50 was greater than 300 µM.

`CC(=O)N=c1c(C#N)cc2c(=O)n3cccc(C)c3nc2n1CCCOC(C)C` [MLS000332846] was tested, and the EC50 was 229 µM.

`COc1ccc(CCN2C(=O)NC(=O)C(=CNc3ccc(NC(C)=O)cc3)C2=O)cc1OC` [MLS000332913] showed an EC50 greater than 300 µM.

Work on `O=C1CCCC2=Nc3cc(Cl)ccc3SC12` (stereo not given) [MLS000333002] yielded an EC50 of 8.9 µM.

In the case of `CCCCCCN1C(=O)C(=CNc2ccccc2N2CCOCC2)C(=O)NC1=S` [MLS000333666], the EC50 is reported as greater than 300 µM.

`Cc1ccc(CN=Nc2ncnc3nc[nH]c23)cc1` [MLS000419179] gave an EC50 greater than 300 µM.

Work on `CCOc1ccc(N=C(C(=C(Cl)C(Cl)Cl)[N+](=O)[O-])n2cncn2)cc1` [MLS000519210] yielded an EC50 of 45.4 µM.

For `COc1cc(CN=Nc2ccc([N+](=O)[O-])cc2)ccc1OCC(=O)Nc1ccc(C)c(C)c1` [MLS000537060], the EC50 was 234 µM.

`Cc1cc(C)cc(N2C(=O)NC(=O)C(=Cc3cccn3-c3ccc(Cl)cc3)C2=O)c1` [MLS000545741] showed an EC50 of 136 µM.

`[H]/N=C1/OC23CCCCC2C(C#N)(C#N)C1(C#N)C(c1ccc(OC)cc1)O3` (stereo not given) [MLS000554241] gave an EC50 of 11.2 µM.

Work on `Nc1c(-c2nc3ccccc3[nH]2)c(O)cn1-c1ccc(CC(=O)O)cc1` [MLS000565528] yielded an EC50 of 1.59 µM.
